Reference: patent US20170027917A1, “PHARMACEUTICAL COMPOSITIONS COMPRISING ANTIBACTERIAL AGENTS” (priority 2014, published 2017)
Where two headings read alike, the source gives them in different places.

What was measured:
Experiment in all cases: MIC determination in Muller Hinton Agar (CLSI agar dilution)
Type in all cases: cell-based
[1] = test system: P. aeruginosa 1405; settings: Pseudomonas aeruginosa; P. aeruginosa 1405, Derepressed AmpC; agent alone
Method: (§1) The antibacterial activity of combinations according to the invention against resistant bacterial strains was investigated. Minimum Inhibitory Concentration (MIC) determination for the combinations according to invention was carried out in Muller Hinton Agar (MHA) (BD, USA) according to Clinical and Laboratory Standards Institute (CLSI) recommendations, (Clinical and Laboratory Standards Institute (CLSI), Performance Standards for Antimicrobial Susceptibility Testing, 20th Informational Supplement, M 100-S20, Volume 30, No. 1, 2010). In short, the test strains were adjusted to deliver about 10^4 CFU per spot with a multipoint inoculator (Applied Quality Services, UK). The plates were pored with MHA containing doubling concentration range of the test combinations according to invention. The plates were inoculated and were incubated at 35° C. for 18 hours.

[2] = test system: E. coli S206; settings: Escherichia coli
Method: as §1

[3] = test system: Citrobacter sp S123A
Method: as §1

[4] = test system: K. pneumoniae H521; settings: Klebsiella pneumoniae
Method: as §1

[5] = test system: K. pneumoniae J102; settings: Klebsiella pneumoniae
Method: as §1

[6] = test system: E. coli NCTC 13352; settings: Escherichia coli, NCTC13352
Method: as §1

[7] = test system: E. coli M50; settings: Escherichia coli
Method: as §1

[8] = test system: E. cloacae J137; settings: Enterobacter cloacae
Method: as §1

[9] = test system: P. aeruginosa 2779; settings: Pseudomonas aeruginosa
Method: as §1

[10] = test system: K. pneumoniae J125; settings: Klebsiella pneumoniae
Method: as §1

[11] = test system: K. pneumoniae ATCC 700603; settings: Klebsiella pneumoniae, ATCC700603
Method: as §1

SMILES	MIC [1]	MIC ([2]; S206)	MIC [3]	MIC ([4]; H521)	MIC ([5]; J102)	MIC [6]	MIC ([7]; M50)	MIC ([8]; J137)	MIC [9]; 2779	MIC ([10]; J125)	MIC [11]	MIC ([2]; E. coli S206, Class C, agent alone, read-out: MIC)	MIC ([4]; K. pneumoniae H521, KPC, SHV, TEM, agent alone, read-out: MIC)	MIC ([5]; K. pneumoniae J102, OMP, SHV, TEM, agent alone, read-out: MIC)	MIC ([6]; E. coli NCTC 13352, TEM-10, agent alone, read-out: MIC)	MIC ([7]; E. coli M50, CMY-2, agent alone, read-out: MIC)	MIC ([8]; E. cloacae J137, P99, agent alone, read-out: MIC)	MIC ([9]; P. aeruginosa 2779, AmpC, agent alone, read-out: MIC)	MIC ([10]; K. pneumoniae J125, KPC3, SHV, TEM, agent alone, read-out: MIC)	MIC ([11]; K. pneumoniae ATCC 700603, SHV-18, agent alone, read-out: MIC)
Cn1c(N)c(NC(=O)NCCN)c[n+]1CC1=C(C(=O)O)N2C(=O)[C@@H](NC(=O)/C(=N\OC(C)(C)C(=O)[O-])c3nsc(N)n3)[C@H]2SC1 [Ceftolozane]	8 µg/mL	> 32 µg/mL	> 32 µg/mL	> 32 µg/mL	> 32 µg/mL	> 32 µg/mL	> 32 µg/mL	> 32 µg/mL	4 µg/mL	32 µg/mL	4 µg/mL									
C[C@@H](O)[C@H]1C(=O)N2C(C(=O)O)=C(SCCN=CN)C[C@H]12 [Imipenem]	16 µg/mL		4 µg/mL									0.25 µg/mL	32 µg/mL	4 µg/mL	0.25 µg/mL	0.5 µg/mL	1 µg/mL	2 µg/mL	8 µg/mL	0.5 µg/mL
